Reference: article PMC3914206

Assays:
Format in all cases: binding
panel of 442 kinases [1] = biological target: T1, panel of 442 kinases (Homo sapiens, UniProt P17612); settings: Compound Concentration 10 µM
T1 construct: purchased KINOMEscan
Source text: (§1) We assessed the selectivity of members of this scaffold using the KINOMEscan methodology across a near comprehensive panel of 442 kinases [[18,27]].

panel of 442 kinases [2] = biological target: T2, panel of 442 kinases (Homo sapiens, UniProt P46734); settings: Compound Concentration 10 µM
T2 construct: purchased KINOMEscan
T2 sequence (P46734 1-347): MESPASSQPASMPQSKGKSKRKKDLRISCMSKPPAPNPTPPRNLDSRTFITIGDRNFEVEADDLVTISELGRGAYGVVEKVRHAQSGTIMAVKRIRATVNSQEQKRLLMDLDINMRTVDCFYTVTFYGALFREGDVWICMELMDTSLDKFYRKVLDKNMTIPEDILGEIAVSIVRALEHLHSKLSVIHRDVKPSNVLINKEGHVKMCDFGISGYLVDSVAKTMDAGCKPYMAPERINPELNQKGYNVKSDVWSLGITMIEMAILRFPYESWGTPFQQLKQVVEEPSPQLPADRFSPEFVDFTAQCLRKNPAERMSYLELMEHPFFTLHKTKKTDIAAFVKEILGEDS
Source text: as §1

panel of 442 kinases [3] = biological target: T3, panel of 442 kinases (Homo sapiens, UniProt Q9H093); settings: kinase SNARK; compound concentration 10 µM
T3 construct: purchased KINOMEscan
T3 sequence (Q9H093 1-628): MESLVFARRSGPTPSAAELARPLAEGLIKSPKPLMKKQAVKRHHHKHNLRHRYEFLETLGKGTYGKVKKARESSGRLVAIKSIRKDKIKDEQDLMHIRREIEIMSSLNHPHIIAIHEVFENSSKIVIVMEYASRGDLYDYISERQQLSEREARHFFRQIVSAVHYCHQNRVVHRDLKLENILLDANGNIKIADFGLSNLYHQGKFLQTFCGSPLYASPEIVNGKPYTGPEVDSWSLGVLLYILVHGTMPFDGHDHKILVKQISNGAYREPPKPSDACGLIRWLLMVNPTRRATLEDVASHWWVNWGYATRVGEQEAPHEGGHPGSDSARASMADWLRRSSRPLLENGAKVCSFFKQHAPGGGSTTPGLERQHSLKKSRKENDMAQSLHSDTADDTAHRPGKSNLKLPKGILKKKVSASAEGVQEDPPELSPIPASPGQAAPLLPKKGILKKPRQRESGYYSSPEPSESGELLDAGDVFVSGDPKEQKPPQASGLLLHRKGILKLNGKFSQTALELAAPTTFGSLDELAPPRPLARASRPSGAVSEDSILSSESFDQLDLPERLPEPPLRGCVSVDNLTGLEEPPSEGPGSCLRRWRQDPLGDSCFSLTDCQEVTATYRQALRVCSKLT
Source text: as §1

Compound | KINOMEscan: PKAC-alpha (panel of 442 kinases [1]) | KINOMEscan: MEK3 (panel of 442 kinases [2]) | % Ctrl, SNARK (panel of 442 kinases [3])
COc1cc(C(=O)N2CCC(N3CCN(C)CC3)CC2)ccc1Nc1ncc2c(n1)N(C1CCCC1)c1ccccc1C(=O)N2C [Compound 25, 11-cyclopentyl-2-((2-methoxy-4-(4-(4-methylpiperazin-1-yl)piperidine-1-carbonyl)phenyl)amino)-5-methyl-5H-benzo[e]pyrimido[5,4-b][1,4]diazepin-6(11H)-one] | 100 | 73 | 100 % Ctrl
CCOc1cc(C(=O)N2CCC(N3CCN(C)CC3)CC2)ccc1Nc1ncc2c(n1)N(C1CCCC1)c1ccccc1C(=O)N2C [Compound 26] | 100 | 86 | 96 % Ctrl
COc1cc(C(=O)N2CCC(N3CCN(C)CC3)CC2)ccc1Nc1ncc2c(n1)N1CCc3cccc(c31)C(=O)N2C [Compound 24] |  | 65 | 74 % Ctrl
COc1cc(C(=O)N2CCC(N3CCN(C)CC3)CC2)ccc1Nc1ncc2c(n1)N(C)c1ccccc1C(=O)N2C [15 (LRRK2-IN-1)] | 100 | 75 | 47 % Ctrl
